Consider five compounds from US5840684A, “Glycopeptide antibiotic derivatives” (Eli Lilly and Company, priority 1995, dated 1998).

In brackets after ≈: the same amount, converted by molar mass.

Assay [1] relates to Entercoccus faecium 180-1. The experiment in a line: broth micro-dilution MIC. It is filed as cell-based. As for the experimental part:
(§1) The MIC's were determined using a standard broth micro-dilution assay.
A general note: Broth dilution looks for growth in wells or tubes with falling amounts of substance.

Assay [2] relates to Staphylococcus aureus 491. The experiment in a line: broth micro-dilution MIC. It is filed as cell-based. The method, then:
as §1

The subject of assay [3] is Staphylococcus aureus SA1199. The experiment in a line: broth micro-dilution MIC. In kind it is cell-based. As for the experimental part: as §1
The test system of assay [4] is Streptococcus pyogenes C203. The experiment in a line: broth micro-dilution MIC. In kind it is cell-based. The method, then:
as §1

Assay [5] relates to Staphylococcus aureus 489. The experiment in a line: broth micro-dilution MIC. In kind it is cell-based. The method, then:
as §1

Assay [6] has as its system Staphylococcus aureus X400. The experiment in a line: broth micro-dilution MIC. In kind it is cell-based. The method, then: as §1
Assay [7] has as its system Staphylococcus aureus 447. The experiment in a line: broth micro-dilution MIC. In kind it is cell-based. As for the experimental part: as §1
Assay [8] has as its system Staphylococcus aureus SA1199A. The experiment in a line: broth micro-dilution MIC. It is filed as cell-based. The method, then:
as §1

For assay [9], the system named is Staphylococcus aureus 446. The experiment in a line: broth micro-dilution MIC. It is filed as cell-based. As for the experimental part:
as §1

The subject of assay [10] is Staphylococcus aureus X778. The experiment in a line: broth micro-dilution MIC. It is filed as cell-based. The method, then: as §1
The subject of assay [11] is Entercoccus faecium 276. The experiment in a line: broth micro-dilution MIC. It is filed as cell-based. The method, then:
as §1

The subject of assay [12] is vancomycin-susceptible enterococci. The experiment in a line: broth micro-dilution, mean geometric MIC. It is filed as cell-based, Enterococcus faecium and Enterococcus faecalis. To be noted: enterococci, 24-hour incubation.
The test system of assay [13] is vancomycin-resistant enterococci. The experiment in a line: broth micro-dilution, mean geometric MIC. It is filed as cell-based, Enterococcus faecium and Enterococcus faecalis. To be noted: enterococci, 24-hour incubation.
The subject of assay [14] is Staphylococcus aureus S13E. In kind it is cell-based. The method, then: as §1
For assay [15], the system named is Staphylococcus aureus SA1199B. In kind it is cell-based. As for the experimental part:
as §1

In assay [16] the test system is Staphylococcus haemolyticus 415. The experiment in a line: broth micro-dilution MIC. It is filed as cell-based. As for the experimental part: (§2) The formula I compounds have in vitro and in vivo activity against Gram-positive pathogenic bacteria. The MIC's were determined using a standard broth micro-dilution assay.
The subject of assay [17] is Streptococcus pneumoniae P1. The experiment in a line: broth micro-dilution MIC. It is filed as cell-based. As for the experimental part:
as §2

Assay [18] concerns Haemophilus influenzae RD. The experiment in a line: broth micro-dilution MIC. It is filed as cell-based. To be noted: Haemophilus influenzae RD. As for the experimental part: as §2
The test system of assay [19] is Entercoccus faecium 2041. The experiment in a line: broth micro-dilution MIC. It is filed as cell-based. To be noted: Entercoccus faecium 2041. As for the experimental part: as §2
In assay [20] the test system is Staphylococcus epidermidis 270. The experiment in a line: broth micro-dilution MIC. It is filed as cell-based. As for the experimental part: as §2
Assay [21] relates to Enterococcus gallinarum 245. The experiment in a line: broth micro-dilution MIC. In kind it is cell-based. Particulars: Enterococcus gallinarum 245. As for the experimental part: as §2
In assay [22] the test system is Entercoccus faecium 180. The experiment in a line: broth micro-dilution MIC. In kind it is cell-based. To be noted: Entercoccus faecium 180. The method, then:
as §2

Assay [23] deals with Staphylococcus haemolyticus 105. The experiment in a line: broth micro-dilution MIC. It is filed as cell-based. The method, then:
as §2

Turning to `CNC(CC(C)C)C(=O)NC1C(=O)NC(CC(N)=O)C(=O)NC2C(=O)NC3C(=O)NC(C(=O)NC(C(=O)O)c4cc(O)cc(O)c4-c4cc3ccc4O)C(OC3CC(C)(N)C(O)C(C)O3)c3ccc(c(Cl)c3)Oc3cc2cc(c3OC2OC(CO)C(O)C(O)C2OC2CC(C)(NCc3cccc(Oc4cccc(C(F)(F)F)c4)c3)C(O)C(C)O2)Oc2ccc(cc2Cl)C1O` (stereo not drawn) [Compound 203], the MIC in assay [1] was not above 0.06 µg/mL; in [2] it was 1 µg/mL (≈ 0.543 µM); in assay [3], 2 µg/mL (≈ 1.09 µM); in assay [4], not above 0.06 µg/mL; in assay [5], 0.5 µg/mL (≈ 0.271 µM); in assay [6] it was 1 µg/mL (≈ 0.543 µM). In addition, the MIC in [7] is 1 µg/mL (≈ 0.543 µM); in [8], 0.5 µg/mL (≈ 0.271 µM); in [9], 0.5 µg/mL (≈ 0.271 µM); in assay [10], 1 µg/mL (≈ 0.543 µM); in assay [11], 0.5 µg/mL (≈ 0.271 µM); in assay [14] it was 2 µg/mL (≈ 1.09 µM). The MIC is 1 µg/mL (≈ 0.543 µM) in [15]; 2 µg/mL (≈ 1.09 µM) in [16]; not above 0.06 µg/mL in [17]; 16 µg/mL (≈ 8.68 µM) in assay [18]; 0.25 µg/mL (≈ 0.136 µM) in [19]; 0.5 µg/mL (≈ 0.271 µM) in assay [20]. For the same compound, the MIC in [21] came to 2 µg/mL (≈ 1.09 µM); in assay [22], 0.125 µg/mL (≈ 0.0678 µM); in assay [23], 1 µg/mL (≈ 0.543 µM). Besides, the “mean geometric MIC, Vancomycin Sensitive Strains” value in assay [12] amounted to 0.036 µg/mL. In assay [13], the “mean geometric MIC, Vancomycin Resistant Strains” value was determined as 1.0 µg/mL.
In the case of `CNC(CC(C)C)C(=O)NC1C(=O)NC(CC(N)=O)C(=O)NC2C(=O)NC3C(=O)NC(C(=O)NC(C(=O)O)c4cc(O)cc(O)c4-c4cc3ccc4O)C(OC3CC(C)(N)C(O)C(C)O3)c3ccc(c(Cl)c3)Oc3cc2cc(c3OC2OC(CO)C(O)C(O)C2OC2CC(C)(NCc3ccc(-c4ccccc4)cc3)C(O)C(C)O2)Oc2ccc(cc2)C1O` (stereo not drawn) [Compound 185], the MIC result in assay [1], in assay [2], in assay [3], in assay [4], in [5] and in assay [6] was “≤ .06 µg/mL” throughout. The MIC result in assay [7], in assay [8], in assay [9], in assay [10], in assay [11] and in assay [14] was “≤ .06 µg/mL” in each case. Also, the MIC result in [15] was “≤ .06 µg/mL”; in assay [16], “≤ .06 µg/mL”; in [17] it was “≤ .06 µg/mL”; in assay [18], 8 µg/mL (≈ 4.64 µM); in [19], “≤ .06 µg/mL”; in assay [20], “≤ .06 µg/mL”. Moreover, the MIC entry in assay [21] is “≤ .06 µg/mL”; in [22], 0.125 µg/mL (≈ 0.0725 µM); in assay [23], “≤ .06 µg/mL”. Also, in assay [12], the “mean geometric MIC, Vancomycin Sensitive Strains” value was 0.060 µg/mL. Moreover, in [13], the “mean geometric MIC, Vancomycin Resistant Strains” value is 4.7 µg/mL.
Take `CNC(CC(C)C)C(=O)NC1C(=O)NC(CC(N)=O)C(=O)NC2C(=O)NC3C(=O)NC(C(=O)NC(C(=O)O)c4cc(O)cc(O)c4-c4cc3ccc4O)C(OC3CC(C)(N)C(O)C(C)O3)c3ccc(c(Cl)c3)Oc3cc2cc(c3OC2OC(CO)C(O)C(O)C2OC2CC(C)(NCCCCCCCCOc3ccc(Oc4ccccc4)cc3)C(O)C(C)O2)Oc2ccc(cc2Cl)C1O` (stereo not drawn) [Compound 202]: the MIC in assay [1] was 0.5 µg/mL (≈ 0.265 µM); in [2], 4 µg/mL (≈ 2.12 µM); in assay [3], 8 µg/mL (≈ 4.24 µM); in assay [4], not above 0.06 µg/mL; in assay [5], 4 µg/mL (≈ 2.12 µM); in [6] it was 4 µg/mL (≈ 2.12 µM). Moreover, the MIC in assay [7] worked out at 8 µg/mL (≈ 4.24 µM); in assay [8], 2 µg/mL (≈ 1.06 µM); in assay [9], 4 µg/mL (≈ 2.12 µM); in assay [10] it was 4 µg/mL (≈ 2.12 µM); in assay [11], 4 µg/mL (≈ 2.12 µM); in assay [14], 4 µg/mL (≈ 2.12 µM). Besides, the MIC was 8 µg/mL (≈ 4.24 µM) in assay [15]; 8 µg/mL (≈ 4.24 µM) in [16]; not above 0.06 µg/mL in assay [17]; 32 µg/mL (≈ 16.9 µM) in assay [18]; 1 µg/mL (≈ 0.529 µM) in [19]; 4 µg/mL (≈ 2.12 µM) in [20]. The MIC in [21] was found to be 8 µg/mL (≈ 4.24 µM); in assay [22] it was 0.5 µg/mL (≈ 0.265 µM); in assay [23] it was 4 µg/mL (≈ 2.12 µM). For the same compound, in assay [12], the “mean geometric MIC, Vancomycin Sensitive Strains” value amounted to 0.76 µg/mL. Further, the “mean geometric MIC, Vancomycin Resistant Strains” value in assay [13] stood at 1.4 µg/mL.
In the case of `CNC(CC(C)C)C(=O)NC1C(=O)NC(CC(N)=O)C(=O)NC2C(=O)NC3C(=O)NC(C(=O)NC(C(=O)O)c4cc(O)cc(O)c4-c4cc3ccc4O)C(OC3CC(C)(N)C(O)C(C)O3)c3ccc(c(Cl)c3)Oc3cc2cc(c3OC2OC(CO)C(O)C(O)C2OC2CC(C)(NCCCCCCCCCC#Cc3ccccc3)C(O)C(C)O2)Oc2ccc(cc2Cl)C1O` (stereo not drawn) [Compound 236], the MIC was 1 µg/mL (≈ 0.55 µM) in assay [1]; 4 µg/mL (≈ 2.2 µM) in assay [2]; 4 µg/mL (≈ 2.2 µM) in assay [3]; not above 0.06 µg/mL in assay [4]; 4 µg/mL (≈ 2.2 µM) in assay [5]; 2 µg/mL (≈ 1.1 µM) in [6]. Also, the MIC in assay [7] was found to be 4 µg/mL (≈ 2.2 µM); in assay [8] it was 2 µg/mL (≈ 1.1 µM); in [9] it was 1 µg/mL (≈ 0.55 µM); in [10], 2 µg/mL (≈ 1.1 µM); in assay [11], 2 µg/mL (≈ 1.1 µM); in assay [14], 4 µg/mL (≈ 2.2 µM). The MIC in [15] is 4 µg/mL (≈ 2.2 µM); in assay [16], 4 µg/mL (≈ 2.2 µM); in assay [17] it was not above 0.06 µg/mL; in assay [18], 32 µg/mL (≈ 17.6 µM); in assay [19] it was 1 µg/mL (≈ 0.55 µM); in assay [20], 2 µg/mL (≈ 1.1 µM). For the same compound, the MIC in assay [21] was found to be 4 µg/mL (≈ 2.2 µM); in assay [22] it was 1 µg/mL (≈ 0.55 µM); in [23] it was 4 µg/mL (≈ 2.2 µM). In assay [12], the “mean geometric MIC, Vancomycin Sensitive Strains” value came out at 0.5 µg/mL. The “mean geometric MIC, Vancomycin Resistant Strains” value in [13] was 1.4 µg/mL.
Take `CNC(CC(C)C)C(=O)NC1C(=O)NC(CC(N)=O)C(=O)NC2C(=O)NC3C(=O)NC(C(=O)NC(C(=O)O)c4cc(O)cc(O)c4-c4cc3ccc4O)C(OC3CC(C)(N)C(O)C(C)O3)c3ccc(c(Cl)c3)Oc3cc2cc(c3OC2OC(CO)C(O)C(O)C2OC2CC(C)(NCc3ccc(Oc4ccc(Cl)c(Cl)c4)cc3)C(O)C(C)O2)Oc2ccc(cc2Cl)C1O` (stereo not drawn) [Compound 81]: the MIC in assay [2] was 1 µg/mL (≈ 0.542 µM); in assay [3], 2 µg/mL (≈ 1.08 µM); in assay [4] it was not above 0.06 µg/mL; in assay [5], 2 µg/mL (≈ 1.08 µM); in assay [6] it was 1 µg/mL (≈ 0.542 µM); in assay [7] it was 2 µg/mL (≈ 1.08 µM). For the same compound, the MIC in assay [8] was 0.5 µg/mL (≈ 0.271 µM); in assay [9] it was 2 µg/mL (≈ 1.08 µM); in assay [10] it was 1 µg/mL (≈ 0.542 µM); in assay [11], not above 0.06 µg/mL; in [14], 0.5 µg/mL (≈ 0.271 µM); in assay [15], 1 µg/mL (≈ 0.542 µM). Further, the MIC in [16] is 4 µg/mL (≈ 2.17 µM); in assay [17], not above 0.06 µg/mL; in assay [18] it was 16 µg/mL (≈ 8.68 µM); in assay [19], not above 0.06 µg/mL; in assay [20] it was 1 µg/mL (≈ 0.542 µM); in assay [21], 0.25 µg/mL (≈ 0.136 µM). The MIC is not above 0.06 µg/mL in assay [22] and 1 µg/mL (≈ 0.542 µM) in assay [23]. The “mean geometric MIC, Vancomycin Sensitive Strains” value in [12] worked out at 0.042 µg/mL. In [13], the “mean geometric MIC, Vancomycin Resistant Strains” value was 1.0 µg/mL.
